# Laboratory results from patent US7642239B2, “Inhibition of placenta growth factor (PLGF) mediated metastasis and/or angiogenesis” (Center for Molecular Medicine and Immunology, priority 2005, dated 2010).
# Marks after values point to notes of the source that are not given here.
# B1: Flt-1: human recombinant soluble Flt-1 (sFlt-1) (R&D Systems) (protein)
# chain: SKLKDPELSLKGTQHIMQAGQTLHLQCRGEAAHKWSLPEMVSKESERLSITKSACGRNGKQFCSTLTLNTAQANHTGFYSCKYLAVPTSKKKETESAIYIFISDTGRPFVEMYSEIPEIIHMTEGRELVIPCRVTSPNITVTLKKFPLDTLIPDGKRIIWDSRKGFIISNATYKEIGLLTCEATVNGHLYKTNYLTHRQTNTIIDVQISTPRPVKLLRGHTLVLNCTATTPLNTRVQMTWSYPDEKNKRASVRRRIDQSNSHANIFYSVLTIDKMQNKDKGLYTCRVRSGPSFKSVNTSVHIYDKAFITVKHRKQQVLETVAGKRSYRLSMKVKAFPSPEVVWLKDGLPATEKSARYLTRGYSLIIKDVTEEDAGNYTILLSIKQSNVFKNLTATLIVNVKPQIYEKAVSSFPDPALYPLGSRQILTCTAYGIPQPTIKWFWHPCNHNHSEARCDFCSNNEESFILDADSNMGNRIESITQRMAIIEGKNKMASTLVVADSRISGIYICIASNKVGTVGRNISFYITDVPNGFHVNLEKMPTEGEDLKLSCTVNKFLYRDVTWILLRTVNNRTMHYSISKQKMAITKEHSITLNLTIMNVSLQDSGTYACRARNVYTGEEILQKKEITIRDQEAPYLLRNLSDHTVAISSSTTLDCHANGVPEPQITWFKNNHKIQQEPGIILGPGSSTLFIERVTEEDEGVYHCKATNQKGSVESSAYLTVQGTSDKSN
# modifications: left off: large carriers
# Columns and labels:
# MDA-MB-468 xenografts = assay type: in vivo, mice; settings: 200 μg/dose i.p., twice-weekly, after 4 weeks
# Description: FIG. 5. Treatment of mice bearing MDA-MB-468 xenografts with peptides BP1 or BP3. Mice were treated every 3-4 days with 200 ug BP as described in Methods. Tumor volume was measured 2×/week. *P<0.05 at days 10, 14, 17 and 24 (change in tumor volume (ANOVA)). FIG. 5A—tumors treated with binding peptide 1. FIG. 5B—tumors treated with binding peptide 3.
# Mice bearing MDA-MB-468 xenografts (average tumor volume: 0.19 cm^3) were treated with i.p. injections of individual peptides (200 μg/dose) (FIG. 5). After 4 weeks of twice-weekly treatment, tumor growth was inhibited by 49% and 58% in mice treated with BP1 (FIG. 5A) or BP3 (FIG. 5B), respectively. The effect of BP3 on tumor growth was apparent after 2 weeks of treatment (FIG. 5B), whereas the inhibitory effect of BP1 was evident after one week (FIG. 5A). The average changes in individual tumor volumes during treatment with BP1 were significant (P<0.05) at days 10, 14, 17 and 24 (FIG. 5A). Treatment with BP2 was ineffective; tumors continued to grow at almost the same rate as the mock-treated controls (results not shown). BP4 treatment produced a 20% inhibition of tumor growth (results not shown).
# PlGF = target: T1, PlGF (Homo sapiens, UniProt P49763); assay: Free peptide binding ELISA (FLAG epitope probe), PlGF-coated wells; settings: free peptide; BP3, BP4, BP3scr at up to 50 μM
# T1 construct: purchased R&D Systems
# T1 sequence (P49763 19-170 isoform P49763-3 limits assumed): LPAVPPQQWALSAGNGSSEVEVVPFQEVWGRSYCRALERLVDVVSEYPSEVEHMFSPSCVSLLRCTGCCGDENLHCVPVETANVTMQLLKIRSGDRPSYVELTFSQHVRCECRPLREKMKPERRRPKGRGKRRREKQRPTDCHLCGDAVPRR
# Description: (§1) Competition assays were done with 2.5 or 25 U/ml heparin (Sigma, St. Louis, Mo.). BP1, 3, 4, and a scrambled version of BP3 (scrBP3) were synthesized with a linker followed by the FLAG epitope ([…] SEQ ID NO:5) at the C-terminus. Thirty minutes after addition of the first reagent, the second reagent was added, followed by another 30 minute incubation. Peptide binding was assessed by probing for the FLAG epitope (Prickett et al., Biotechniques 7:580-9, 1989; Castrucci et al., J. Virol. 66:4647-53, 1992). Absorbance was read at 490 nm.
# VEGF165 = target: T2, VEGF165 (Homo sapiens, UniProt P15692); assay: Free peptide binding ELISA (FLAG epitope probe), VEGF-coated wells; settings: ELISA-based binding assay
# T2 construct: purchased R&D Systems
# T2 sequence (P15692 27-191 isoform P15692-4): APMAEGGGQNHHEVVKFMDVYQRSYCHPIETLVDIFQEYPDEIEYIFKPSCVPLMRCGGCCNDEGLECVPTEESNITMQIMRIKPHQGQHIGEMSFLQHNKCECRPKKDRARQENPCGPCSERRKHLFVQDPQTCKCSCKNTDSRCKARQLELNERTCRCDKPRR
# Description: as §1
# [1] = target: T3, recombinant human Flt-1 fusion protein (Homo sapiens, UniProt P17948); assay: Free peptide binding and competition ELISA, Flt-1-coated wells; settings: ELISA-based binding assay
# T3 construct: purchased R & D Systems
# T3 sequence (P17948 with tags, fused parts or gaps limits assumed): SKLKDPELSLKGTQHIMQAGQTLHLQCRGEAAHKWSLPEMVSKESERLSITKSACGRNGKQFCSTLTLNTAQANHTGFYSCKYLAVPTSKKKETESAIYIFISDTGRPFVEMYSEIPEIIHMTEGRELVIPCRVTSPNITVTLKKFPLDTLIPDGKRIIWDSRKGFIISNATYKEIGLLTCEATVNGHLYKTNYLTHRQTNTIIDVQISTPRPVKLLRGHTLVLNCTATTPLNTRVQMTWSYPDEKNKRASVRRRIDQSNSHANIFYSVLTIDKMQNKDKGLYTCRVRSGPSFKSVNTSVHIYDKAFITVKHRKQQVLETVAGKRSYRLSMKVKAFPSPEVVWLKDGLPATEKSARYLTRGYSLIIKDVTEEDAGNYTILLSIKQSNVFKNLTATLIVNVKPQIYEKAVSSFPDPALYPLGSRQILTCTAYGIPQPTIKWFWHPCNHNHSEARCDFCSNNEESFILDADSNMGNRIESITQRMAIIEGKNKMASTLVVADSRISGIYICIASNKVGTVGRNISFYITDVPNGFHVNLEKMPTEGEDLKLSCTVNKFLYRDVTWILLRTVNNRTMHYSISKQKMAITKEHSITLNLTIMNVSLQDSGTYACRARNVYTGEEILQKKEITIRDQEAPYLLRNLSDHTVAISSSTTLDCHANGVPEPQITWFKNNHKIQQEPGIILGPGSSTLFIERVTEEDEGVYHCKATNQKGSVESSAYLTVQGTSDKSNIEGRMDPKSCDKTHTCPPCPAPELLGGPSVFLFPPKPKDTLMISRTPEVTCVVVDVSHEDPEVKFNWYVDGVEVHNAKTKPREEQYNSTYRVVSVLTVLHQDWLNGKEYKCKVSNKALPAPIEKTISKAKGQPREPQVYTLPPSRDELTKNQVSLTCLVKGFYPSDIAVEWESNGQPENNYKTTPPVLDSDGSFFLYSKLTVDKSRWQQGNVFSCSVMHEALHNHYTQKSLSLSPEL
# Description: as §1
# MDA-MB-231 [2] = assay: Wound-healing (motility) assay, MDA-MB-231; assay type: cell-based, human; settings: for Migrating cells: 18-24 h; for inhibition (block) of PlGF-stimulated motility / migration: soluble Flt-1 2 nM, PD98059 50 μM, Wortmannin 5 nM
# Description: (§2) MCF-7, MDA-MB-23 1, and MDA-MB-468 breast tumor cell lines or HECs were seeded onto sterile glass coverslips in Petri dishes or six-well plates. When the cells were 70-80% confluent, the monolayers were scratched with a sterile plastic pipet tip.
# (§3) Inhibitor concentrations were 50 μM PD98059 (PD98) (mitogen activated protein kinase-kinase 1 [MEK1] inhibitor), 5 nM Wortmannin (phosphatidyl inositol 3 kinase [PI3K] inhibitor), or human recombinant soluble Flt-1 (sFlt-1) (R&D Systems). […] Cells were pre-incubated with PD98 and Wortmannin for 15-30 min before addition of PlGF. Stained (Wright-Giemsa) and mounted coverslips were examined microscopically. Five to ten 100× fields were evaluated by counting the number of cells separated from the wound edges and which appeared to be migrating toward the center of the wound. Results are reported as the average number of cells migrating into the wound/100× field. In some cases data from separate experiments were combined to accommodate inclusion of various treatments in the tables.
# (§4) Antibody concentration was 1 μg/ml. MEK1 inhibitor, PD98059 (PD98), 50 μM. PI3K inhibitor, Wortmannin, 5 nM. […] Values for antibody and inhibitor treatments were from separate experiments which included all relevant controls. […] UT denotes untreated controls. *P<0.01 (ANOVA) compared to UT; † P<0.02 (ANOVA) compared to PlGF only. ‡ P<0.001 (ANOVA) compared to PlGF only.
# MDA-MB-468 = assay: Wound-healing (motility) assay, MDA-MB-468; assay type: cell-based, human; settings: for Migrating cells: 18-24 h
# Description: as §2, §3, §4
# MCF-7 = assay: Wound-healing (motility) assay, MCF-7; assay type: cell-based, human; settings: for Migrating cells: 18-24 h
# Description: as §2, §3, §4
# MDA-MB-231 [3] = assay: Matrigel cell invasion assay, MDA-MB-231; assay type: cell-based, human; settings: 24 h
# Description: Cellular invasion was determined by addition of 5×10^4cells to growth factor-reduced Matrigel invasion chambers (BD Biosciences Discovery Labware, Bedford, Mass.) (Taylor et al., 2003b; Passaniti et al., 1992, Lab Invest 67, 519-528). Additives to the Matrigel® plugs were pre-incubated together in a total volume of 100 μl PBS at RT for 10 min, after which each additive was added to the Matrigel. Growth factors (2.0 or 0.2 nM), peptide (2 μg/ml), or antibody (1 μg/ml) were added to cells in low serum (0.1% fetal bovine serum [FBS]) medium. Baseline and chemoattractant-based invasion (10% FBS) were included. The number of invading cells was determined by counting the number of cells on the bottom of the invasion chamber membrane after staining at 100× magnification after 24 h (MDA-MB-231) or 48 h (MCF-7, MDA-MB-468). The results of three to five separate experiments are presented.
# [4] = test system: MDA-MB-231 s.c. xenograft; assay: Subcutaneous MDA-MB-231 xenograft growth and lung metastasis; assay type: in vivo, nude mice; settings: subsequent experiment, start at 0.07-0.08 cm^3; 200 μg i.p.; mock 0.25
# Description: The tissue-culture-grown human breast tumor cell line, MDA-MB-231, was implanted subcutaneously (s.c.) on the flanks of nude mice. When tumors were visible, the mice were weighed and the tumors measured. Treatment with peptides was begun when tumors averaged about 0.06-0.12 cm^3 in volume. Mice were treated with 200-μg peptide in PBS by i.p. injection at 3-4-day intervals for 4 weeks. Animals were weighed and the tumors measured at each treatment. In a second experiment, the control peptide, CPA, was included. Three days after the final treatment, tumors and lungs were harvested. Tumor burden of the lungs (from experiment 1) was determined by counting colonies (<20 cells), clusters (>20-100 cells), and nodules (>100 cells) seen in all the lung tissue on a total of 4 slides or sections for each mouse. Data are presented as the average number of each size of metastasis for each treatment group (3-4 mice/group). The total number of each was summed for each treatment group, and divided by the total number of mice in that group. The percent inhibition for metastasis was determined by the formula: % inhibition=(# mock-treated−# treated/# mock-treated)×100.
# To test for therapeutic activity of the peptide, BP1, mice were implanted with human breast cancer cells, MDA-MB-231, which produces lung metastases spontaneously when implanted as a subcutaneous tumor. When the tumors averaged 0.12 cm^3 in volume, either mock-treatment or therapy with BP1 was initiated at 200 μg, two times per week for 4 weeks. […] In a subsequent experiment, treatment was commenced when tumors were 0.07-0.08 cm^3. After 4 weeks of treatment, as described, the mean volume of the mock- and CPA-treated tumors was 0.25 and 0.33 cm^3, respectively, whereas BP1-treated tumors averaged 0.04 cm^3 (P<0.05 BP1 vs. mock- or CPA-treated tumors) (FIG. 3A).
# MDA-MB-231 mfp tumor = assay: Orthotopic mammary fat pad (mfp) MDA-MB-231 model; assay type: in vivo, SCID mice
# From the text: MDA-MB-231, grown in tissue culture, was also implanted in the mammary fat pad (mfp) of SCID mice (3×10^6 cells, 4-5 mice/group). In this model, large pulmonary metastases are less likely to develop (Richert et al., Breast Cancer Res. 7:R819-27, 2005). Peptide treatment was commenced on day 5 after implantation, when small tumors were palpable in all mice (8 treatments). Three days after the final peptide treatment, tumors were removed and weighed. Lungs were harvested and examined microscopically for metastases, as described above.
# [5] = VEGF 2 nM ± test agent, relative to VEGF-only value, unit assumed
# [6] = growth factor PlGF 2 nM ± test agent (Flt-1 2 nM, peptide 2 μM, antibody 1 μg/ml, PD98059 50 μM, Wortmannin 5 nM)
# [7] = growth factor VEGF 2 nM ± test agent (peptide 2 μM, antibody 1 μg/ml)
# [8] = growth factor PlGF 2 nM ± test agent (Flt-1 2 nM, peptide 2 μM, antibody 1 μg/ml)
# [9] = growth factor VEGF 2 nM ± test agent
# [10] = PlGF 2 nM ± test agent, relative to PlGF-only value, unit assumed
# [11] = PlGF 2 nM ± test agent, relative to PlGF-only value
molecule,measurement,setting,value
QDDHLTTGR (listed as Homo sapiens) [BP2],tumor growth inhibition,MDA-MB-468 xenografts,ineffective
"CPA: control peptide derived by substituting A for the H, R and D residues in BP1 (SAAYALAIQLAASASSSSCV) [reference compound]",binding to PlGF (in words),PlGF,bound
same,binding to VEGF (in words),VEGF165,bound
same,attenuated affinity for Flt-1,[1],50%
same,Relative activity,MDA-MB-231 [2]; [5],121%
same,effect on PlGF-stimulated motility (in words),"MDA-MB-231 [2]; antibody 1 μg/ml, peptide 2 μM",had no effect
same,Migrating cells,MDA-MB-231 [2]; [6],39.8 ± 10.6 cells/100× field
same,Migrating cells,MDA-MB-231 [2]; [7],13.4 ± 4.5 cells/100× field
same,Relative activity,MDA-MB-468; [5],104%
same,Migrating cells,MDA-MB-468; [8],21.6 ± 6.1 cells/100× field
same,Migrating cells,MDA-MB-468; [9],14.6 ± 8.0 cells/100× field
same,Relative activity,MCF-7; [5],111%
same,Migrating cells,MCF-7; [9],19.4 ± 8.9 cells/100× field
same,"invading cells, PlGF plus peptide",MDA-MB-231 [3]; PlGF-stimulated invasion with added peptide,35±17.3 cells
same,mean tumor volume after 4 weeks of treatment,[4],0.33 cm^3
same,tumor weight,"MDA-MB-231 mfp tumor; 8 peptide treatments, mock-treated 0.423±0.089",0.416 ± 0.083 g
same,micrometastasis counts per mouse,"MDA-MB-231 mfp tumor; lung, mock-treated 3.4±1.9",2.8±1.3
"COC[C@H]1OC(=O)c2coc3c2[C@@]1(C)C1=C(C3=O)[C@@H]2CCC(=O)[C@@]2(C)C[C@H]1OC(C)=O [Wortmannin, reference compound]",Relative activity,MDA-MB-231 [2]; [10],39%
same,Migrating cells,MDA-MB-231 [2]; [6],16.4 ± 5.8‡ cells/100× field
same,inhibition (block) of PlGF-stimulated motility / migration,MDA-MB-231 [2],72%
VEGF,Migrating cells,MDA-MB-231 [2]; [7],11.1 ± 1.8 cells/100× field
same,Migrating cells,MDA-MB-468; [9],14.0 ± 11.3 cells/100× field
same,Migrating cells,MCF-7; [9],12.7 ± 4.1 cells/100× field
same,invading cells,MDA-MB-231 [3]; VEGF 2.0 nM or 0.2 nM,10±8.0 cells
"COc1cccc(-c2cc(=O)c3ccccc3o2)c1N [PD98059, reference compound]",Relative activity,MDA-MB-231 [2]; [10],43%
same,Migrating cells,MDA-MB-231 [2]; [6],18.4 ± 8.0‡ cells/100× field
same,inhibition (block) of PlGF-stimulated motility / migration,MDA-MB-231 [2],68%
B1,Relative activity,MDA-MB-231 [2]; [11],45
same,Migrating cells,MDA-MB-231 [2]; [6],19.1 ± 8.0† cells/100× field
same,inhibition (block) of PlGF-stimulated motility / migration,MDA-MB-231 [2],55%
same,Relative activity,MDA-MB-468; [11],53
same,Migrating cells,MDA-MB-468; [8],7.8 ± 5.9† cells/100× field
same,Relative activity,MCF-7; [11],47
same,Migrating cells,MCF-7; [8],10.4 ± 8.2† cells/100× field
same,block of the stimulatory effect of PlGF on motility,MCF-7; soluble Flt-1 2 nM,67%
